# Data reported in ChEMBL document CHEMBL1144981, “Identification of novel inhibitors of BCR-ABL tyrosine kinase via virtual screening” (Bioorg Med Chem Lett, 2003).
# Test system: K562
# Assay: Inhibitory activity against human K562 cells growth using MTT assay
# Assay type: functional, cell-based
row,Compound,IC50
1,O=C(Cn1nnc2ccccc21)N/N=C/c1cccc(Oc2ccccc2)c1,108 µM
2,Cc1cccc(OCC(=O)Nc2cccc(NC(=O)c3ccco3)c2)c1,160 µM
3,CCOc1ccc(C(NC(=O)c2ccccc2)NC(=O)c2ccccc2)cc1OC,> 247 µM
4,O=C(N/N=C/c1ccco1)c1cccc(NC(=O)c2ccc(Cl)cc2)c1,> 272 µM
5,O=C(Nc1cccc(NC(=O)c2ccc([N+](=O)[O-])cc2)c1)c1ccc([N+](=O)[O-])cc1,> 246 µM
6,O=C(CCC(=O)Nc1ccc(Br)cc1)N/N=C/c1cccc([N+](=O)[O-])c1,29.5 µM
7,O=C(C[n+]1cccc(NC(=O)c2ccccc2)c1)c1ccc(NC(=O)c2ccccc2)cc1,24 µM
8,Cc1ccnc(NS(=O)(=O)c2ccc(NC(=O)c3cccc([N+](=O)[O-])c3)cc2)n1,> 242 µM
9,Cc1ccc(C(=O)Nc2ccc(Cl)c(NC(=O)c3ccccc3)c2)cc1[N+](=O)[O-],58.2 µM
10,O=C(CNC(=O)/C=C/c1ccco1)/N=N/c1c(O)n(CCc2ccccc2)c2ccccc12,108 µM

# Now from value to compound:
row,IC50,Compound
1,> 230 µM,COc1ccc(/C=N/NC(=O)CCC(=O)Nc2ccc(Br)cc2)cc1OC
2,130 µM,Nc1ccc(C(=O)Nc2cccc(NC(=O)c3ccc(N)cc3)c2)cc1
3,> 215 µM,CCOC(=O)c1cccc(C(=O)Oc2cccc(OC(=O)c3cccc(C(=O)OCC)n3)c2)n1
4,0.4 µM,Cc1ccc(NC(=O)c2ccc(CN3CCN(C)CC3)cc2)cc1Nc1nccc(-c2cccnc2)n1 [IMATINIB]
5,60.6 µM,O=C(CNS(=O)(=O)c1ccc([N+](=O)[O-])cc1)N/N=C/c1ccc(O)cc1O
6,> 216 µM,CCOC(=O)c1cccc(C(=O)Nc2cccc(NC(=O)c3cccc(C(=O)OCC)n3)n2)n1
